In PubChem BioAssay AID330 (DTP/NCI, 2004):
Values joined by “and” are separate entries in the source; they are usually repeats but may differ in a detail not shown here. Equal entries are not always repeated. Toxic doses and inconclusive results are not listed.

Tested on: P388 leukemia ip, CD2F1 mice, survival T/C
Assay: NCI In Vivo Anticancer Drug Screen. Data for tumor model P388 Leukemia (intraperitoneal) in CD2F1 (CDF1) mice
Conditions: endpoint: median survival time, higher = longer survival
In short: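 Mice carrying the transplanted tumor received test compound or vehicle. Survival was recorded in each group, and the value is the treated-group measurement divided by that of the vehicle-treated control group.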

[1] = dose: 50.0 mg/kg/injection, schedule: Q01DX009 (ip), vehicle: Klucel (hydroxypropylcellulose) (HPC)
[2] = dose: 100.0 mg/kg/injection, schedule: Q01DX009 (ip), vehicle: saline with Tween-80
[3] = dose: 50.0 mg/kg/injection, schedule: Q01DX005 (ip), vehicle: Klucel (hydroxypropylcellulose) (HPC)
[4] = dose: 100.0 mg/kg/injection, schedule: Q01DX005 (ip), vehicle: Klucel (hydroxypropylcellulose) (HPC)
[5] = dose: 200.0 mg/kg/injection, schedule: Q01DX005 (ip), vehicle: Klucel (hydroxypropylcellulose) (HPC)
[6] = dose: 50.0 mg/kg/injection, schedule: Q01DX009 (ip), vehicle: saline
[7] = dose: 100.0 mg/kg/injection, schedule: Q01DX009 (ip), vehicle: saline

SMILES: C[n+]1ccccc1/C=C/c1ccc2c(c1)OCO2
- T/C (dose: 6.25 mg/kg/injection, schedule: Q01DX009 (ip), vehicle: Klucel (hydroxypropylcellulose) (HPC)): 102 % of control
- T/C (dose: 12.5 mg/kg/injection, schedule: Q01DX009 (ip), vehicle: Klucel (hydroxypropylcellulose) (HPC)): 98 % of control
- T/C (dose: 25.0 mg/kg/injection, schedule: Q01DX009 (ip), vehicle: Klucel (hydroxypropylcellulose) (HPC)): 110 % of control
- T/C [1]: 114 % of control

SMILES: COc1cccc2c1C(=O)c1c(O)c3c(c(O)c1C2=O)CC(O)(C(C)=O)CC3OC1CC(OC(=O)c2ccc([N+](=O)[O-])cc2)C(OC(=O)c2ccc([N+](=O)[O-])cc2)C(C)O1 (stereo not given)
- T/C (dose: 3.13 mg/kg/injection, schedule: Q04DX003 (ip), vehicle: distilled water + Tween-80): 100 % of control
- T/C (dose: 3.13 mg/kg/injection, schedule: Q04DX003 (ip), vehicle: saline with Tween-80): 100 % of control and 101 % of control
- T/C (dose: 6.25 mg/kg/injection, schedule: Q04DX003 (ip), vehicle: distilled water + Tween-80): 108 % of control
- T/C (dose: 6.25 mg/kg/injection, schedule: Q04DX003 (ip), vehicle: saline with Tween-80): 104 % of control and 100 % of control
- T/C (dose: 12.5 mg/kg/injection, schedule: Q04DX003 (ip), vehicle: distilled water + Tween-80): 101 % of control
- T/C (dose: 12.5 mg/kg/injection, schedule: Q04DX003 (ip), vehicle: saline with Tween-80): 101 % of control and 95 % of control
- T/C (dose: 25.0 mg/kg/injection, schedule: Q04DX003 (ip), vehicle: distilled water + Tween-80): 95 % of control
- T/C (dose: 25.0 mg/kg/injection, schedule: Q04DX003 (ip), vehicle: saline with Tween-80): 101 % of control and 100 % of control
- T/C (dose: 50.0 mg/kg/injection, schedule: Q04DX003 (ip), vehicle: distilled water + Tween-80): 156 % of control
- T/C (dose: 50.0 mg/kg/injection, schedule: Q04DX003 (ip), vehicle: saline with Tween-80): 95 % of control and 100 % of control

SMILES: O=C(O)C(O)(c1ccccc1)C1CCCC1 (stereo not given)
- T/C [2]: 109 % of control
- T/C (dose: 400.0 mg/kg/injection, schedule: Q01DX009 (ip), vehicle: saline with Tween-80): 107 % of control

SMILES: CCOc1nc(C(=O)O)cc2ccsc12
- T/C (dose: 100.0 mg/kg/injection, schedule: Q01DX001 (ip), vehicle: Klucel (hydroxypropylcellulose) (HPC)): 90 % of control
- T/C (dose: 200.0 mg/kg/injection, schedule: Q01DX001 (ip), vehicle: Klucel (hydroxypropylcellulose) (HPC)): 94 % of control
- T/C (dose: 400.0 mg/kg/injection, schedule: Q01DX001 (ip), vehicle: Klucel (hydroxypropylcellulose) (HPC)): 96 % of control

SMILES: Nc1ncnc2c1ccn2Cc1c(F)cccc1Cl
- T/C (dose: 50.0 mg/kg/injection, schedule: Q01DX005 (ip), vehicle: distilled water + alcohol): 100 % of control
- T/C (dose: 100.0 mg/kg/injection, schedule: Q01DX005 (ip), vehicle: distilled water + alcohol): 101 % of control
- T/C (dose: 200.0 mg/kg/injection, schedule: Q01DX005 (ip), vehicle: distilled water + alcohol): 105 % of control

SMILES: CCOC1(OCC)N(S(=O)(=O)c2ccc(C)cc2)C(=O)C(=O)N1S(=O)(=O)c1ccc(C)cc1
- T/C (dose: 100.0 mg/kg/injection, schedule: Q04DX002 (ip), vehicle: saline): 100 % of control
- T/C (dose: 200.0 mg/kg/injection, schedule: Q04DX002 (ip), vehicle: saline): 106 % of control
- T/C (dose: 400.0 mg/kg/injection, schedule: Q04DX002 (ip), vehicle: saline): 103 % of control

SMILES: CC(C)(C)N=C(CCN1CCN(c2ccccc2)CC1)Nc1ccccc1Cl
- T/C (dose: 50.0 mg/kg/injection, schedule: Q01DX009 (ip), vehicle: saline with Tween-80): 109 % of control
- T/C [2]: 108 % of control
- T/C (dose: 200.0 mg/kg/injection, schedule: Q01DX009 (ip), vehicle: saline with Tween-80): 100 % of control

SMILES: CCCCCCC(/C=C/c1ccccc1Cl)=N\O
- T/C [1]: 92 % of control
- T/C (dose: 100.0 mg/kg/injection, schedule: Q01DX009 (ip), vehicle: Klucel (hydroxypropylcellulose) (HPC)): 100 % of control
- T/C (dose: 200.0 mg/kg/injection, schedule: Q01DX009 (ip), vehicle: Klucel (hydroxypropylcellulose) (HPC)): 105 % of control

SMILES: CC1CC(=O)NN1 (stereo not given)
- T/C (dose: 60.0 mg/kg/injection, schedule: Q01DX005 (ip), vehicle: Klucel (hydroxypropylcellulose) (HPC)): 100 % of control
- T/C (dose: 120.0 mg/kg/injection, schedule: Q01DX005 (ip), vehicle: Klucel (hydroxypropylcellulose) (HPC)): 101 % of control
- T/C (dose: 240.0 mg/kg/injection, schedule: Q01DX005 (ip), vehicle: Klucel (hydroxypropylcellulose) (HPC)): 107 % of control

SMILES: Cc1nc2c(=O)nc3n(c2nc1C)CCS3
- T/C (dose: 100.0 mg/kg/injection, schedule: Q01DX001 (ip), vehicle: saline): 104 % of control
- T/C (dose: 200.0 mg/kg/injection, schedule: Q01DX001 (ip), vehicle: saline): 102 % of control
- T/C (dose: 400.0 mg/kg/injection, schedule: Q01DX001 (ip), vehicle: saline): 104 % of control

SMILES: O=S(CCCl)CCCl
- T/C (dose: 6.25 mg/kg/injection, schedule: Q01DX001 (ip), vehicle: saline): 117 % of control
- T/C (dose: 12.5 mg/kg/injection, schedule: Q01DX001 (ip), vehicle: saline): 152 % of control

SMILES: c1ccc(C(NC2=NCCCCCC2)c2ccco2)cc1 (stereo not given)
- T/C (dose: 7.5 mg/kg/injection, schedule: Q01DX005 (ip), vehicle: saline with Tween-80): 99 % of control
- T/C (dose: 15.0 mg/kg/injection, schedule: Q01DX005 (ip), vehicle: saline with Tween-80): 93 % of control
- T/C (dose: 30.0 mg/kg/injection, schedule: Q01DX005 (ip), vehicle: saline with Tween-80): 101 % of control

SMILES: O=C(O)C1CCCN1C(=O)OCC1c2ccccc2-c2ccccc21 (stereo not given)
- T/C [3]: 99 % of control
- T/C [4]: 99 % of control
- T/C [5]: 95 % of control

SMILES: COc1ccccc1Cc1c(OC)cc(OC)c(C(=O)CCc2ccccc2)c1O
- T/C (dose: 3.2 mg/kg/injection, schedule: Q01DX009 (ip), vehicle: other): 100 % of control
- T/C (dose: 4.3 mg/kg/injection, schedule: Q01DX009 (ip), vehicle: other): 110 % of control
- T/C (dose: 6.4 mg/kg/injection, schedule: Q01DX009 (ip), vehicle: other): 100 % of control and 105 % of control
- T/C (dose: 9.6 mg/kg/injection, schedule: Q01DX009 (ip), vehicle: other): 114 % of control and 97 % of control
- T/C (dose: 14.0 mg/kg/injection, schedule: Q01DX009 (ip), vehicle: other): 89 % of control
- T/C (dose: 28.0 mg/kg/injection, schedule: Q01DX009 (ip), vehicle: other): 91 % of control

SMILES: NNC(=O)C(NC(=O)c1ccccc1)C(N)=O (stereo not given)
- T/C (dose: 100.0 mg/kg/injection, schedule: Q04DX003 (ip), vehicle: saline): 95 % of control
- T/C (dose: 200.0 mg/kg/injection, schedule: Q04DX003 (ip), vehicle: saline): 95 % of control
- T/C (dose: 400.0 mg/kg/injection, schedule: Q04DX003 (ip), vehicle: saline): 94 % of control

SMILES: NCc1ccc(Cl)c(Cl)c1
- T/C (dose: 6.25 mg/kg/injection, schedule: Q01DX009 (ip), vehicle: saline): 110 % of control and 116 % of control
- T/C (dose: 12.5 mg/kg/injection, schedule: Q01DX009 (ip), vehicle: saline): 104 % of control and 107 % of control
- T/C (dose: 25.0 mg/kg/injection, schedule: Q01DX009 (ip), vehicle: saline): 100 % of control and 103 % of control
- T/C [6]: 101 % of control and 104 % of control
- T/C [7]: 103 % of control and 109 % of control

SMILES: Cn1ncc(=O)c(Cl)c1Cl
- T/C (dose: 50.0 mg/kg/injection, schedule: Q01DX005 (ip), vehicle: saline with Tween-80): 95 % of control
- T/C (dose: 100.0 mg/kg/injection, schedule: Q01DX005 (ip), vehicle: saline with Tween-80): 101 % of control
- T/C (dose: 200.0 mg/kg/injection, schedule: Q01DX005 (ip), vehicle: saline with Tween-80): 102 % of control

SMILES: CC(=O)NCCn1ccnc1
- T/C [6]: 95 % of control
- T/C [7]: 102 % of control
- T/C (dose: 200.0 mg/kg/injection, schedule: Q01DX009 (ip), vehicle: saline): 102 % of control

SMILES: O=C(Oc1ccccc1)c1ccc([N+](=O)[O-])cc1
- T/C (dose: 25.0 mg/kg/injection, schedule: Q01DX005 (ip), vehicle: Klucel (hydroxypropylcellulose) (HPC)): 100 % of control
- T/C [3]: 105 % of control
- T/C [4]: 101 % of control
- T/C [5]: 104 % of control

SMILES: Cc1ccc(C)c(NC(=O)CCC(=O)C(C#N)c2nc3ccccc3s2)c1 (stereo not given)
- T/C (dose: 60.0 mg/kg/injection, schedule: Q01DX005 (ip), vehicle: saline with Tween-80): 103 % of control
- T/C (dose: 120.0 mg/kg/injection, schedule: Q01DX005 (ip), vehicle: saline with Tween-80): 102 % of control
- T/C (dose: 240.0 mg/kg/injection, schedule: Q01DX005 (ip), vehicle: saline with Tween-80): 97 % of control

SMILES: CCCCC1(CCCCCCCCCO)OCCO1
- T/C (dose: 100.0 mg/kg/injection, schedule: Q04DX002 (ip), vehicle: Klucel (hydroxypropylcellulose) (HPC)): 101 % of control
- T/C (dose: 200.0 mg/kg/injection, schedule: Q04DX002 (ip), vehicle: Klucel (hydroxypropylcellulose) (HPC)): 99 % of control
- T/C (dose: 400.0 mg/kg/injection, schedule: Q04DX002 (ip), vehicle: Klucel (hydroxypropylcellulose) (HPC)): 100 % of control
